{"source": "patent US20120028265A1", "about": "“METHODS OF USING RET NANOSENSORS” (priority 2007, published 2012)", "key": {"[1]": {"target": "FLIParaF.Ec-200n, FRET nanosensor: E. coli K12 AraF (L-arabinose binding protein) fused between eCFP and Venus (Escherichia coli, UniProt P02924)", "sequence (P02924 24-329)": "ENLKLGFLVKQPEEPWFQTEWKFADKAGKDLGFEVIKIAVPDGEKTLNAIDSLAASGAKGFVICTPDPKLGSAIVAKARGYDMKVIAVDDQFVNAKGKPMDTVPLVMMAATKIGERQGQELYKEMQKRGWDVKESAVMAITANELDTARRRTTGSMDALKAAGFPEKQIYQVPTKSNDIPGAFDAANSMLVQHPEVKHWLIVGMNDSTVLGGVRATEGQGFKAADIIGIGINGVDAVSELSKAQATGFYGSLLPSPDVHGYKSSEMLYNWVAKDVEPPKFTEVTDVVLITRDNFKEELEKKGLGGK", "assay": "In vitro FRET titration of purified arabinose nanosensor", "settings": "D/L-arabinose; apparent; purified sensor, 20 mM MOPS pH 7.0, Venus/eCFP emission ratio 528/485 nm, single-site isotherm", "from_the_text": "The araF gene (EMBL: K00420) was amplified from Escherichia coli K12 genomic DNA using homologous primers, resulting in a PCR product that consisted of araF without stopcodon flanked by phage lambda attB recombination sites. The araF gene was fused between eCFP and Venus coding sequences of pGW1 through pDONR (Invitrogen) using […] (Invitrogen), respectively. The final construct was denoted pGW1araF.Ec and the correct sequence of the araF gene was verified by DNA sequencing (Sequetech). The gene product encoded on pGW1araF.Ec was denoted FLIParaF.Ec-200n.\nThe eCFP emission used for the ratio calculation was determined at 485 nm. Protein was diluted to give Venus/eYFP readouts of 20,000 to 30,000 at a manual gain between 70-75. By using the change in FRET ratio upon binding of ligand, affinity constants (Kd) were determined by fitting the titration curves to a single-site-binding isotherm:\nR=Rapo+(Rsat−Rapo)·(n·[L])/(Kd+[L])\nwith [L], ligand concentration; n, number of equal binding sites; R, ratio; Rapo, ratio in the absence of ligand; and Rsat, ratio at saturation with ligand. Three independent protein preparations were analyzed and each protein preparation was analyzed in triplicate."}, "[2]": {"tested_on": "E. coli L-arabinose binding protein AraF, unmodified", "settings": "tryptophan fluorescence spectroscopy, read-out: affinity (Kd); cited from earlier work"}, "[3]": {"target": "glucose nanosensor (not named in Example 9)", "settings": "read-out: affinity constant for glucose", "procedure": "The confidence range for calculation of intracellular glucose concentrations is determined by the quality of the recorded sensor response data. As a rule of thumb, data with standard deviations off ±2.5% and ±5% can be interpreted between 10% and 90% and between 20% and 80% saturation, respectively. Monitoring the sensor response in presence of alternating analyte concentrations yields information about transport and metabolism in the targeted subcellular compartment from (1) the intracellular accumulation rate upon addition of the analyte, which is composed of influx rate minus metabolism and export rates, (2) the elimination rate when the analyte is removed, which is composed of export plus metabolism minus influx, (3) the steady state level of the sensor response, in which influx equals metabolism and efflux, and (4) the time delay before a sensor response can be recorded, which represents differences in influx rates or metabolism."}, "[4]": {"target": "FLII12Pglu700μ-δ6 glucose nanosensor (Escherichia coli, UniProt P0AEE5)", "sequence (P0AEE5 24-332 limits assumed)": "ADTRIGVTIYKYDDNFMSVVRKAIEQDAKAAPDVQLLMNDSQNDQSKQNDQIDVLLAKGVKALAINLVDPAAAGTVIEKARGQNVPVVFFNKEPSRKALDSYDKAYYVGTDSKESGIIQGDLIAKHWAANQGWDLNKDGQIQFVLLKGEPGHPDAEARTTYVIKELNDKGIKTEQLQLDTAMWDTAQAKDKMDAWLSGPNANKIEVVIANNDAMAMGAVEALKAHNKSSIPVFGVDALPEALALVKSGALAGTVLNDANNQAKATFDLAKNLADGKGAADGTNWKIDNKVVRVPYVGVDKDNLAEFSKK", "assay_type": "binding", "settings": "read-out: Kd, affinity constant of nanosensor; used for theoretical saturation curve", "procedure": "(A) Theoretical curve of glucose-induced FRET changes of FLII12Pglu700μ-δ6. […] Light gray shaded area indicates 10-90% confidence range of FLII12Pglu700μ-δ6 detection range, the dark gray shaded area indicates 20-80% confidence range. (B) Effect of the variation in ratio data (SD) on the determination of glucose concentrations. […] The calculated glucose concentration from the average of ratio data was set as 100%. In vivo glucose concentration was calculated from the equation: [gluc]vivo=Kd×(Δr−1)/(ΔRmax−Δr) with [G], glucose concentration; Kd, affinity constant of nanosenor; Δr, partial ratio change; ΔRmax, maximum ratio change. (C) Examples of in vivo glucose concentration dynamics upon cell perfusion and nanosenor range of FLII12Pglu700μ-δ6. The glucose concentration dynamics within the nanosenor range report differences in 1) accumulation rate, 2) elimination rate, 3) steady-state level, and 4) delay in nanosenor response. Gray lines indicate real in vivo glucose concentration dynamics and black lines indicate the nanosenor saturation of FLII12Pglu700μ-δ6. (D) In vivo glucose concentration-time plot (black line) with ratio ±SD and confidence range (grey lines) of FLII12Pglu700μ-δ6."}}}
{"molecule": "OC1COC(O)C(O)C1O", "note": "(racemic) [D/L-arabinose]", "values": [{"measurement": "Kd", "setting": "[1]", "value": "0.23 ± 0.018", "unit": "µM"}]}
{"molecule": "OC1OC[C@H](O)[C@H](O)[C@H]1O", "note": "(stereo partly drawn) [L-arabinose]", "values": [{"measurement": "Kd", "setting": "[2]", "value": "0.098 ± 0.033", "unit": "µM"}]}
{"molecule": "OC[C@H]1OC(O)[C@H](O)[C@@H](O)[C@@H]1O", "note": "(stereo partly shown) [glucose]", "values": [{"measurement": "Kd", "setting": "[3]", "value": 600, "unit": "µM"}, {"measurement": "Kd", "setting": "[4]", "value": 660, "unit": "µM"}]}
